Source: US11819552B2, “Antibody-drug conjugates targeting uPARAP” (RIGSHOSPITALET, priority 2016, dated 2023)
Where a SMILES comes first, the peptide text is derived from it. [ ]: non-standard residue; d: D form. The star is where a group is joined. Dolaproine = CO[C@@H]([C@@H]1CCCN1)[C@@H](C)C(=O)O; Dil = CC[C@H](C)[C@H](NC)[C@@H](CC(=O)O)OC; X1 = C[C@@H](N*)[C@@H](O)c1ccccc1; NMeV = CN[C@H](C(=O)O)C(C)C

What was measured:
HT1080 cells = test: Cell cycle distribution analysis; type: cell-based; details: 3-day incubation, 50 nM free toxin
Description: (§1) Cell cycle analysis was performed using a Nucleocounter NC-3000 system (ChemoMetec Denmark), using the manufacturers standard protocol for analyzing the cell cycle distribution of a population of cells, based on the DNA content of each cell. The percentage of cells in Sub-G1, G1, S, or G2/M-phases of the cell cycle was established from histogram analysis using the NucleoView NC-3000 software.

THP-1 cells = test: Cell cycle distribution analysis; type: cell-based; details: 3-day incubation, 50 nM free toxin
Description: as §1

U937 cells = test: Cell cycle distribution analysis; type: cell-based; details: 3-day incubation, 50 nM free toxin
Description: as §1

KNS42 cells = test: Cell cycle distribution analysis; type: cell-based; details: 3-day incubation, 50 nM free toxin
Description: as §1

uPARAP = target: T1, uPARAP (Homo sapiens, UniProt Q9UBG0); test: Western blotting of MG63 cell lysate; type: binding; design: endogenous in cells; host or cells: MG63 human osteosarcoma cells; details: detergent lysate of uPARAP-positive MG63 human osteosarcoma cells
T1 sequence (Q9UBG0 31-1479): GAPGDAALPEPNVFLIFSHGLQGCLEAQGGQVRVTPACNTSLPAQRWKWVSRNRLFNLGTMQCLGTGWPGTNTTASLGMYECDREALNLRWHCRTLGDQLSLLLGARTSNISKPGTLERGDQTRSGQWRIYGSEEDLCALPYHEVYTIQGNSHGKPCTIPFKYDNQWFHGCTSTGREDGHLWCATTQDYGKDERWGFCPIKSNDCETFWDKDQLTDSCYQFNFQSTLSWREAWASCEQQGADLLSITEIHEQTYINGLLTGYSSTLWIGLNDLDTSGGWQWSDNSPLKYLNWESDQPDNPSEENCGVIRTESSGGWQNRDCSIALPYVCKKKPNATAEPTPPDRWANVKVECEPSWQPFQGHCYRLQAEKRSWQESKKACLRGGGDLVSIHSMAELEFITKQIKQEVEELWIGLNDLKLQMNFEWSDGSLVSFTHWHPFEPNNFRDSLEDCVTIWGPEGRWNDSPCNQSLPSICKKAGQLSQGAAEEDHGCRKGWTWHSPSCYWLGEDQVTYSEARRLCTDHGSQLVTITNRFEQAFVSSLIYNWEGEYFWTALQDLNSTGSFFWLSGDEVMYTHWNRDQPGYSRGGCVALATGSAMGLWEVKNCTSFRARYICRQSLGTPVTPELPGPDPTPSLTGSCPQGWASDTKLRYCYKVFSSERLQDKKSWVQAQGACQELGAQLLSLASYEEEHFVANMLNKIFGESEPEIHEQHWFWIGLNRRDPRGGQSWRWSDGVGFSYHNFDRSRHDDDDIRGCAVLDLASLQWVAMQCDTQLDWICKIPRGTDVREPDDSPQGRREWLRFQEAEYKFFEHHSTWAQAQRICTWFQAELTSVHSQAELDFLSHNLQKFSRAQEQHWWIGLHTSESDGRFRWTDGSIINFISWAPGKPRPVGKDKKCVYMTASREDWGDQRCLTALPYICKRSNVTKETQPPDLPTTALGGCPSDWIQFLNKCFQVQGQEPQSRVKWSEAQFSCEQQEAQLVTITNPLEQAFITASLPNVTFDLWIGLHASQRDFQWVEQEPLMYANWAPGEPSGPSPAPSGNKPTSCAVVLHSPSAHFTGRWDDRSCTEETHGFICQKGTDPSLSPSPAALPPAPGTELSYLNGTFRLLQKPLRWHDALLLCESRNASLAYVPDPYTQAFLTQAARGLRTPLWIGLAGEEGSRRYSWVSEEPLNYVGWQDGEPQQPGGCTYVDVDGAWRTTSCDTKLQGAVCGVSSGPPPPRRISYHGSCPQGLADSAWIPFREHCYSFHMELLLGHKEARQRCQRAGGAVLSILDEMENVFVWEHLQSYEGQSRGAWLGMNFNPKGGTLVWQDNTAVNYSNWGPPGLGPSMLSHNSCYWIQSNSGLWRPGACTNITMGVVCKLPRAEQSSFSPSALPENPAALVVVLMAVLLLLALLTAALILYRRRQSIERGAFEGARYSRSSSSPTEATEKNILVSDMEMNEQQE
Description: For Western blotting, a detergent cell lysate prepared from uPARAP-positive MG63 human osteosarcoma cells was analyzed, using identical concentrations of “2h9 cloned” and “2h9 original” as the primary antibodies. […] No reaction is seen in the absence of primary antibody (negative control).

| Reactivity in Western blotting (uPARAP; listed as recombinant antibody product) | Molecule | Cell cycle distribution (HT1080 cells) | Cell cycle distribution (THP-1 cells) | Cell cycle distribution (U937 cells) | Cell cycle distribution (KNS42 cells) | Reactivity in Western blotting (uPARAP) |
| --- | --- | --- | --- | --- | --- | --- |
| – | CC[C@H](C)[C@@H]([C@@H](CC(=O)N1CCC[C@H]1[C@H](OC)[C@@H](C)C(=O)N[C@H](C)[C@@H](O)c1ccccc1)OC)N(C)C(=O)[C@@H](NC(=O)[C@@H](NC)C(C)C)C(C)C [MMAE, monomethyl auristatin E, reference compound] (H-[NMeV]V[Dil][Dolaproine]-X1) | shift in cell cycle distribution towards the Sub-G1 and G2/M phases | shift in cell cycle distribution towards the Sub-G1 and G2/M phases | shift in cell cycle distribution towards the Sub-G1 and G2/M phases | shift in cell cycle distribution towards the Sub-G1 and G2/M phases | – |
| specifically recognize uPARAP | 2h9 cloned: recombinant mAb 2h9 product produced in CHO cells from SEQ ID NO: 1 and SEQ ID NO: 5 (protein) light: DIQMTQSPASQSASLGESVTITCLASQTIGTWLAWYQQKPGKSPQLLIYAATTLTDGVPSRFSGAGSGTKFSLKISSLQAEDFASYFCQEFFSTPFTFGSGTKLELKRADAAPTVSIFPPSSEQLTSGGASVVCFLNNFYPKDINVKWKIDGGERQNGVLNSWTDQDSKDSTYSMSSTLTLTKDEYERHNSYTCEATHKTSTSPIVKSFNRNEC heavy: QVQLQQPGTELVRPGLSVKLSCKASGYTFTSYWMNWVKQRPGQGLEWIGMIHPSNDEKRINQKFKDKATLTVDKFSSTVYMQVSSPTSEDSAVYYCARGGGDYVGDYALDFWGQGTSVTVSSAKTTPPSVYPLAPGSAAQTNSMVTLGCLVKGYFPEPVTVTWNSGSLSSGVHTFPAVLQSDLYTLSSSVTVPSSTWPSETVTCNVAHPASSTKVDKKIVPRDCGCKPCICTVPEVSSVFIFPPKPKDVLTITLTPKVTCVVVDISKDDPEVQFSWFVDDVEVHTAQTQPREEQFNSTFRSVSELPIMHQDWLNGKEFKCRVNSAAFPAPIEKTISKTKGRPKAPQVYTIPPPKEQMAKDKVSLTCMITDFFPEDITVEWQWNGQPAENYKNTQPIMDTDGSYFIYSKLNVQKSNWEAGNTFTCSVLHEGLHNHHTEKSLSHSPGK | – | – | – | – | react specifically with the uPARAP protein |
